# Measurements: article PMC10721329, “Quisinostat is a brain-penetrant radiosensitizer in glioblastoma” (JCI Insight, 2023)
# Where “and” joins values, the source holds several entries; their conditions need not be identical. Equal values may be shown once.
# Tests used:
# orthotopic GB126 tumors = assay: RT-qPCR of neuronal genes in GB126 tumors; type: in vivo, athymic nude mice; conditions: relative to Vehicle mouse 1 = 1, individual mice
# Protocol: Reverse Transcription Quantitative Polymerase Chain Reaction
# Total RNA was extracted from orthotopic tumors by using the RNeasy Mini Kit (Qiagen) in accordance with the manufacturer’s instructions. RNA was quantified on a NanoDrop Spectrophotometer ([…]), and 1 μg of total RNA was used for complementary DNA synthesis by using the SuperScript VILO kit (Life Technologies). Quantitative polymerase chain reaction was performed using inventoried TaqMan assays for respective target genes and housekeeping control genes (18S) on the QuantStudio 6 Flex Real -Time PCR System (Life Technologies).
# Fold change in gene expression was analyzed using the delta delta Ct method.
# HDAC2 = tested on: HDAC2; design: method as in PMID 32608981; conditions: cited from earlier work
# BT145 cells = assay: Intracellular uptake of QST and level in media, with or without washout (LC-MS/MS); type: cell-based, human
# Protocol: To further understand the kinetics of drug-target engagement in GSCs, we harvested media and BT145 cells at 0, 2, 6, 10, and 24 hours with or without removal of QST (75 nM). At each time point, we measured the intracellular drug levels and concentrations in the cell media. With continuous drug exposure (no washout), the intracellular levels of QST in BT145 increased throughout the incubation period, reaching equilibrium by 10 hours (Supplemental Figure 2A). […] By contrast, in washout experiments (performed 2 hours after spiking cell media with the drug), minimal QST levels were measured intracellularly after drug removal at all time points (Supplemental Figure 2B).
# QST concentrations in specimens were measured using reverse-phase LC on the AB SCIEX QTRAP6500+ LC-MS/MS system by operating electrospray in the positive ion mode. For liquid chromatographic separation, gradient elution was performed using a Phenomenex Kinetex F5 100 Å column (100 × 2.1 mm, 2.6 μm). The initial composition of the mobile phase was 70% phase A (0.1% formic acid in water) and 30% phase B (0.1% formic acid in 1:1 acetonitrile/methanol) with a 0.35 mL/min flow rate. Gradient elution was achieved as follows: mobile phase (B) was maintained at 30% from 0 to 0.3 minutes, increased to 95% from 0.3 to 0.8 minutes, maintained at 95% from 0.8 to 2.5 minutes, and decreased to 30% from 2.5 to 2.8 minutes. The total run time was 3.5 minutes. The internal standard used in this study was D8-infigratinib. The retention times for QST and D8-infigratinib were 1.6 and 1.8 minutes, respectively. Mass-to-charge ratio transitions were as follows: 395.20 → 144.00 (QST) and 568.08 → 321.00 (D8-infigratinib). LC-MS/MS analysis was performed using an Analyst 1.7 Chromatographic Data System. See Supplemental Methods for detailed PK experiments. […]
# Cell Media and Lysate Sample Preparation
# Cell media and lysates were thawed at room temperature. An aliquot of 20 µL of cell media or lysate was transferred into a micro centrifuge tube followed by protein precipitation with 60 µL of IS-containing methanol precipitation solution. The mixture was vortex-mixed for 10 s and centrifuged at 12000 g at 4 °C for 10 min. A 50-µL aliquot of the supernatant was transferred to an autosampler vial, and 5 µL was injected into the LC-MS/MS system for […]
# [1] = Body weight / tolerability in non-tumor-bearing mice; type: in vivo, athymic nude mice; conditions: for weight of normal nude mice during QST treatment: QST 10 mg/kg, individual mice
smiles,measurement,setting,value
"Cn1cc(CNCC2CCN(c3ncc(C(=O)NO)cn3)CC2)c2ccccc21 [QST, quisinostat]",qPCR CECR2 expression,orthotopic GB126 tumors; Combo (QST + IR),90.297 and 227.304 and 107.431
same,qPCR GABRA2 expression,orthotopic GB126 tumors; Combo (QST + IR),62.6009 and 92.8255 and 56.6887
same,qPCR SCN3A expression,orthotopic GB126 tumors; Combo (QST + IR),28.0147 and 63.295 and 75.3722
same,qPCR BDNF expression,orthotopic GB126 tumors; QST + IR,14.0587 and 9.35 and 2.8459
same,qPCR KCNQ3 expression,orthotopic GB126 tumors; QST + IR,9.67 and 10.8552 and 27.8625
same,qPCR NGFR expression,orthotopic GB126 tumors; QST + IR,3.525 and 9.249 and 10.5627
same,qPCR BDNF expression,orthotopic GB126 tumors; QST,5.022 and 6.518 and 12.9199
same,qPCR CECR2 expression,orthotopic GB126 tumors; QST,38.4564 and 79.55 and 112.554
same,qPCR GABRA2 expression,orthotopic GB126 tumors; QST,1.543 and 82.6227 and 31.8541
same,qPCR KCNQ3 expression,orthotopic GB126 tumors; QST,1.23 and 4.886 and 2.677
same,qPCR NGFR expression,orthotopic GB126 tumors; QST,13.22 and 5.955 and 12.7613
same,qPCR SCN3A expression,orthotopic GB126 tumors; QST,6.113 and 76.4987 and 9.293
same,time to equilibrium of intracellular QST level,"BT145 cells; BT145, 75 nM QST, continuous exposure",≤ 10 h
same,Average Cell uptake,"BT145 cells; no washout, 2 hrs",7.31 nmol/g protein
same,Media,"BT145 cells; no washout, 2 hrs",62.85 nM
same,Media at cell collection,"BT145 cells; no washout, 2 hrs",52.25 nM
same,Average Cell uptake,"BT145 cells; no washout, 6 hrs",10.61 nmol/g protein
same,Media,"BT145 cells; no washout, 6 hrs",67.45 nM
same,Media at cell collection,"BT145 cells; no washout, 6 hrs",45.30 nM
same,Average Cell uptake,"BT145 cells; no washout, 10 hrs",11.62 nmol/g protein
same,Media,"BT145 cells; no washout, 10 hrs",65.15 nM
same,Media at cell collection,"BT145 cells; no washout, 10 hrs",39.70 nM
same,Average Cell uptake,"BT145 cells; no washout, 24 hrs",11.78 nmol/g protein
same,Media,"BT145 cells; no washout, 24 hrs",64.10 nM
same,Media at cell collection,"BT145 cells; no washout, 24 hrs",30.75 nM
same,Average Cell uptake,"BT145 cells; with washout, 0 hrs",7.31 nmol/g protein
same,Media,"BT145 cells; with washout, 0 hrs",62.85 nM
same,Media at cell collection,"BT145 cells; with washout, 0 hrs",52.25 nM
same,Average Cell uptake,"BT145 cells; with washout, 2 hrs",2.58 nmol/g protein
same,Media,"BT145 cells; with washout, 2 hrs",64.35 nM
same,Media at cell collection,"BT145 cells; with washout, 2 hrs",3.665 nM
same,Average Cell uptake,"BT145 cells; with washout, 6 hrs",3.23 nmol/g protein
same,Media,"BT145 cells; with washout, 6 hrs",63.40 nM
same,Media at cell collection,"BT145 cells; with washout, 6 hrs",5.31 nM
same,Average Cell uptake,"BT145 cells; with washout, 10 hrs",2.72 nmol/g protein
same,Media,"BT145 cells; with washout, 10 hrs",66.40 nM
same,Media at cell collection,"BT145 cells; with washout, 10 hrs",5.605 nM
same,Average Cell uptake,"BT145 cells; with washout, 24 hrs",3.95 nmol/g protein
same,Media,"BT145 cells; with washout, 24 hrs",58.55 nM
same,Media at cell collection,"BT145 cells; with washout, 24 hrs",3.57 nM
same,tolerability (weight loss),"[1]; 10 mg/kg IP MWF for 2 weeks, non-tumor-bearing athymic nude mice",well tolerated
same,weight of normal nude mice during QST treatment,[1]; treatment day 1,28.1 g (2×) and 28.4 g and 26.7 g and 26.2 g and 20.2 g
same,weight of normal nude mice during QST treatment,[1]; treatment day 2,27.9 g and 27.4 g and 26 g and 26.7 g and 20.4 g and 27.5 g
same,weight of normal nude mice during QST treatment,[1]; treatment day 3,27.4 g and 27.9 g and 25.6 g and 27.2 g and 20.3 g and 27.8 g
same,weight of normal nude mice during QST treatment,[1]; treatment day 4,28.1 g and 27.7 g and 25.7 g and 27 g (2×) and 20.8 g
same,weight of normal nude mice during QST treatment,[1]; treatment day 5,27.5 g and 27.4 g and 26.5 g and 27.1 g (2×) and 20.3 g
same,weight of normal nude mice during QST treatment,[1]; treatment day 6,27.4 g and 27 g and 26.9 g and 27.2 g and 20.2 g and 27.1 g
